Assays:
Type in all cases: biochemical
IAPP = target: T1, IAPP (Homo sapiens, UniProt P10997); test: CD analysis of IAPP fibril formation (Example 4); set-up: add 10 μL of 10 mg/mL IAPP stock solution (final 100 ng peptide)
T1 sequence (P10997 34-70 limits assumed): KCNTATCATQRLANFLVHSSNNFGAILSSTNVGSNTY

Aβ(1-40) = target: T2, Aβ(1-40) (Homo sapiens, UniProt P05067); test: Circular dichroism analysis, pre-incubation assay, β-sheet at 218 nm; conditions: CD 218 nm, 0.02M Tris pH 7.4
T2 construct: Prepare a fresh 40 μm solution of Aβ(1-40) in 0.02M Tris, pH 7.4; made in house; host or cells: chemical synthesis (FMOC), HPLC purified
Method: The assay is conducted as follows:
Instrument: JASCO J-715 Spectropolarimeter.
Cell/cuvette: Hellma quartz (QS) with 1.0 mm pathlength Room temperature. Wavelength interval: 250 nm-190 nm.
Band width: 1.0 nm Response time: 1 sec Scanning speed: 20 nm/min Number of accumulations/spectrum: 5
1. Prepare a fresh 40 μm solution of Aβ(1-40) in 0.02M Tris, pH 7.4.
2. Prepare a 1 mM solution of test compounds in 0.02M Tris, pH 7.4.
3. Combine equal volumes of the Aβ(1-40) and test compound solutions.
4. Incubate the mixtures for 19 h.
5. Take the CD spectrum using the parameters above.
6. Return the mixtures to the incubator and incubate to 43 h.
7. Take the CD spectrum using the parameters above. • Inhibition of Aβ40 assembly/aggregation is determined by comparing the amount of b-sheet structure) appearing at lambda=218 nm) obtained in control and in treated sample at each timepoint.

Aβ42 = target: T3, Aβ42 (Homo sapiens, UniProt P05067); test: Solubility assay using Bradford detection (Aβ fibril formation); conditions: roughly 1:10 peptide:compound, overnight at room temperature, 10 mM phosphate buffer pH 7
T3 construct: Stock solution of Aβ42 or Aβ40 peptide at 5 mg/ml in distilled water, pH 7; made in house; host or cells: chemical synthesis (FMOC), HPLC purified
Method: Alternatively, peptides can also be obtained from a number of commercial sources (e.g., BaChem and Peninsula Laboratories, California). The assay was conducted as follows. Stock solution of Aβ42 or Aβ40 peptide at 5 mg/ml in distilled water, pH 7, and stock solutions of each test compound at 2 mg/ml in distilled water, pH 7 were prepared. • 1. Mix 5 μl (25 μg) of stock Aβ and 12.5 μl (25 μg) of stock test compounds into 1000 μl of 10 mM phosphate buffer, pH 7. This provides a molar ratio of roughly 1:10 [ peptide:compound] assuming a general molecular weight of 400 daltons for the test compounds. Control samples were prepared for both peptide and compound. These contained Aβ only using both 25 μg (5 μl stock Aβ) and 50 μg ([…]) to provide a standard curve for each run. Test compound controls contained 25 μg of material (12.5 μl of stock). All samples were mixed in 1000 μl of 10 mM phosphate buffer, pH 7 to final volume of 1017.5 μl. • 2. Incubate all samples overnight at room temperature without mixing. • 3. Spin at 14,000 rpm for 10 min in table top Eppendorf microfuge. • 4. Take 800 μl of supernatant. • 5. Add 200 μl of Bradford reagent (purchased from BioRad). • 6. Mix well by vortexing. • 7. Read at OD595 nm.

Aβ42 peptide = target: T4, Aβ42 peptide (Homo sapiens, UniProt P05067); test: ELISA solubility assay (Aβ fibril formation); conditions: 1:10 peptide:compound, overnight at room temperature, 10 mM phosphate buffer
T4 construct: Stock solution of Aβ42 or Aβ40 peptide at 5 mg/ml in distilled water, pH 7; made in house; host or cells: chemical synthesis (FMOC), HPLC purified
Method: The assay was conducted as follows. Stock solution of Aβ42 peptide at 5 mg/ml in distilled water, pH 7, and stock solutions of each test compound at 1 mg/ml in distilled water, pH 7 were prepared. • 1. A 10 μg sample of peptide was mixed with compound at a molar ratio of 1:10 [ peptide:compound] in 500 μl of 10 mM phosphate buffer. Control samples contained peptide only. • 2. The mixture was incubated overnight at room temperature without agitation. • 3. The incubated mixture was centrifuged at 14,000 rpm (Eppendorf microfuge) for 5 minutes to separate the soluble peptide. • 4. 400 μl aliquots of supernatant were removed for ELISA assay.
ELISA • 1. 100 μl of prepared samples were coated in 96 wells NUNC microplates (each sample tested in triplicate) • 2. The plate was incubated at 37° C. for 3 hours, then at 4° C. overnight. • 3. The wells were washed twice with 0.05% Tween 20 in phosphate buffered saline. • 4. 250 μl of 3% skim milk powder in PBS was used to block non-specific binding to the wells (at 37° C. for 1.5 hours) • 5. The wells were washed with 0.05% Tween 20/PBS twice. • 6. A 100 μl aliquot of diluted (final dilution 1:100 in PBS) mouse monoclonal anti-Aβ antibody (purchased from DAKO recognizing the N-terminal residues 1-10) was added to each well. The antibody was then incubated at 37 C for 2 Hours. • 7. The wells were washed with 0.05% Tween 20/PBS six times (5 min/wash). • 8. Visualization was performed using 100 μl of diluted goat anti-mouse IgG (H^+ L) conjugated with alkaline phosphatase (purchased from BioRad) was added to each well. The plate was incubated at 37° C. for 1 hour. • 9. The wells were washed with 0.05% Tween 20/PBS six times (5 min/wash). • 10. The color reaction was developed using 100 μl of alkaline phosphatase substrate (purchased from BioRad) which was added to each well. • 11. The relative amounts of Aβ were obtained by measuring the OD of the sample at 405 nm using a standard ELISA plate reader.
Compounds were characterized as “active” if 40-50% of Aβ42 remained in the supernatant.

T2 sequence (P05067 672-711 limits assumed): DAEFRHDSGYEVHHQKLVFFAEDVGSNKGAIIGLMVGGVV
T3 sequence (P05067 672-713 limits assumed): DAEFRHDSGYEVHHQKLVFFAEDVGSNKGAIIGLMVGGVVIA
T4 sequence (P05067 672-713 limits assumed): as above

Row | SMILES | Activity (preventing or inhibiting IAPP fibril formation) (IAPP) | relative inhibition compared to Aβ alone, incubation time 0 h (Aβ(1-40)) | relative inhibition compared to Aβ alone, incubation time 19 h (Aβ(1-40)) | relative inhibition compared to Aβ alone, incubation time 43 h (Aβ(1-40)) | Aβ42 remaining in the supernatant (activity class) (Aβ42) | Aβ42 remaining in the supernatant (activity class) (Aβ42 peptide)
1 | O=S(=O)(O)CCCNC1(CO)CCCC1 [XLII, 3-(1-hydroxymethyl-1-cyclopentyl)amino-1-propanesulfonic acid] | Active | – | – | – | – | –
2 | O=S(=O)(O)CCCN1CCc2ccccc2C1 [XVII, 3-[2-(1,2,3,4-tetrahydroisoquinolinyl)]-1-propanesulfonic acid] | – | —^1, 2 (No effect compared to Aβ alone) | + (+: 0-25%) | ++ (++: 25-50%) | Active | –
3 | COc1cc(-c2ccc(N=Nc3ccc4c(S(=O)(=O)[O-])cc(S(=O)(=O)[O-])c(N)c4c3O)c(OC)c2)ccc1N=Nc1ccc2c(S(=O)(=O)[O-])cc(S(=O)(=O)[O-])c(N)c2c1O.[Na+].[Na+].[Na+].[Na+] [XXIX, Chicago Sky Blue 6B] | – | – | – | – | Very active | –
4 | Cc1ccc2nc(-c3ccc(N=NNc4ccc(-c5nc6ccc(C)c(S(=O)(=O)[O-])c6s5)cc4)cc3)sc2c1S(=O)(=O)[O-].[Na+].[Na+] [XXVIII, Thiazol Yellow G] | – | – | – | – | – | Active
5 | CC(CCCO)NCCCS(=O)(=O)O (stereo not drawn) [XXXVIII, 3-[(dl)-5-hydroxy-2-pentyl]amino-1-propanesulfonic acid] | Active | — (No effect compared to Aβ alone) | +++ (+++: 50-75%) | ++ (++: 25-50%) | – | –
